Assays:
Type in all cases: in vivo, mouse
Aβ plaques [1] = test: Areal density of Aβ plaques in brains of AD transgenic mice (Thioflavin-S histology); details: for Plaque areal density: 100 ppm in diet, 1 year, mean±S.E.M., p<0.001, untreated 79.8±2.4; for Decrease in plaque areal density: vs untreated transgenic mice
Source text: (§1) B6C3 transgenics (Jackson Laboratory) were used. These double transgenic mice express a chimeric mouse/human amyloid precursor protein (Mo/HuAPP695swe) and a mutant human presenilin 1 (PS1-dE9) both directed to CNS neurons. Both mutations are associated with early-onset Alzheimer's disease. The “humanized” Mo/HuAPP695swe transgene allows the mice to secrete a human Ab peptide. The included Swedish mutations (K595N/M596L) elevate the amount of Ab produced from the transgene by favoring processing through the beta-secretase pathway. Transgenic mice develop beta-amyloid deposits in brain by six to seven months of age. These animals also display a slight alteration in their tail phenotype that is believed to be due to the mixed genetic background of the strain and is not related to transgene expression. These mice are useful in studies of neurological disorders of the brain, specifically Alzheimer's disease, amyloid plaque formation.
(§2) Female B6C3 transgenics were used. Animals were housed 5/cage and fed ad libitum. Groups included controls, RV groups, compound 1 groups and compound 2 groups. Each group was comprised of 15 animals. Diets contained standard dyes to provide different colors to each diet to avoid confusion during the 12 months feeding.
(§3) Transgenic mice carrying mutated APP and presenilin-1 were fed this diet. It was observed early on that compound 2a (4cc) was toxic. Therefore, it was discontinued in the study. […] Twenty four hrs before sacrifice, SPIONs were injected via the tail vein. […] The MRI conspicuity of the plaques increased from a Z-score (signal to noise ratio) of 4.6±0.6 to 8.0±0.1 when the plaque Z-score was compared in control AD mice with AD mice treated with nanoparticles. The number of MRI-visible plaques per brain increased from 355±39 in the control AD mice, to 668±52 in the SPION treated mice.
Paraffin embedded brain sections were rehydrated by progressively immersing them in Hemo-De, 95% EtOH, 70% EtOH and finally 0.1M PBS. […] Images were taken with a Zeiss Axioskop 2 equipped with a Zeiss AxioCam and a Prior Lumen 200 fluorescence lamp (Cancer Center Fluorescence Microscopy Facility, University of New Mexico, Albuquerque, N. Mex., USA, http://hsc.unm.edu/crtc/microscopy/). […]
(§4) Plaque number and area were measured on the CCD images of the IHC brain sections with the aid of ImageJ software (NIH) by thresholding and conversion of the images to binary images. The radial sizes of the plaques were measured using ImageJ on Thioflavin-S stained fluorescence micrographs of brain sections. The radial distributions of activated microglia were measured on spatially calibrated fluorescence micrographs of Iba-1 stained brain sections using the center of the plaque as the local point of reference and the center of the DAPI-stained microglial nucleus as the endpoint. […]

activated microglia = test: Activated microglia density and radial distribution in brains of AD transgenic mice (Iba-1 staining); details: for Areal density of activated microglia: 100 ppm in diet, 1 year, mean±S.E.M., p<0.001, untreated 86.1±2.8; for Decrease in areal density of activated microglia: vs untreated transgenic mice
Source text: as §1, §2, §3
Paraffin embedded brain sections were rehydrated by progressively immersing them in Hemo-De, 95% EtOH, 70% EtOH and finally 0.1M PBS. Antigens were retrieved by placing the slides in 6.0 pH 0.01 M sodium citrate buffer with heating to 90° C. for 20 minutes. After cooling to r.t., the slides were stained with Thioflavin-S as above. After rehydrating with 0.1M PBS for 5 minutes, the slides were blocked with 0.1M PBS containing 6% normal donkey serum for 45 minutes and then incubated overnight with rabbit anti-Iba-1, diluted 1:400, at 4° C. in a humidity chamber. The next day the slides were washed three times with 0.1M PBS. The secondary antibody, rhodamine-conjugated donkey anti-rabbit IgG, was diluted with 0.5% BSA in 0.1M PBS to 1:200 under light-restricted conditions. 100 μl of this secondary antibody solution was applied to each brain slice for 2 h in a light-tight container at r.t. The slides were then rinsed three times with 0.1M PBS and twice with dd water. Vectashield with DAPI was applied and the slides were cover-slipped and sealed for imaging. Images were taken with a Zeiss Axioskop 2 equipped with a Zeiss AxioCam and a Prior Lumen 200 fluorescence lamp (Cancer Center Fluorescence Microscopy Facility, University of New Mexico, Albuquerque, N. Mex., USA, http://hsc.unm.edu/crtc/microscopy/). Images were processed using Slidebook (Denver, Colo.). Confocal images were taken and processed using Zen (Carl Zeiss MicroImaging GmbH, Germany).
as §4

Aβ plaques [2] = test: MRI-detected plaques in brains of AD transgenic mice with anti-APP SPIONs; details: for Decline in number of plaques per brain: 100 ppm in diet, 1 year, MRI
Source text: as §1, §2
Transgenic mice carrying mutated APP and presenilin-1 were fed this diet. It was observed early on that compound 2a (4cc) was toxic. Therefore, it was discontinued in the study. […] Twenty four hrs before sacrifice, SPIONs were injected via the tail vein. […]
Pilot MRI studies of this line of transgenic mice were carried out at three magnetic field strengths: at 4.7 Tesla, at the UNM BRaIN Imaging Center, and at 9.4 and 16.4 Tesla at the Center for Magnetic Resonance Research at the University of Minnesota. […] One hundred ninety two MRI slices were analyzed by counting plaques in each slice, and by computing the statistical significance of the intensity in the hypointense plaque core versus the noise level in the surrounding tissue. […]

Which Plaque areal density (Aβ plaques [1]) does the source give for `COc1ccc(/C=C/c2ccccc2F)cc1` [1a (LD-55)] here?
Its Plaque areal density is 55.4±4.8 plaques/mm^2.

What about the “Decrease in plaque areal density” value (Aβ plaques [1]) of the same compound?
The value was 31%.

And the Proximal halo of microglia around plaques (activated microglia)?
Its Proximal halo of microglia around plaques is 24 µm.

What about the “Areal density of activated microglia” value (activated microglia) of the same compound?
Its value is 44.2±3.2 microglia/mm^2.

And the “Decrease in areal density of activated microglia” value (activated microglia)?
Its value is 49%.

And the “Decline in number of plaques per brain” value (Aβ plaques [2])?
The value was 3-6 fold.

What about the “Total number of MRI-determined plaques” value (Aβ plaques [2]; fed over entire life span, anti-APP SPIONs for 24 hours, SPION control n=668) of the same compound?
Its value is 209.

What does the source list for `Oc1ccc(/C=C/c2cc(O)cc(O)c2)cc1` [Resveratrol, reference compound]?
Plaque areal density (Aβ plaques [1]): 51.8±2.4 plaques/mm^2; Decrease in plaque areal density (Aβ plaques [1]): 35%; Proximal halo of microglia around plaques (activated microglia): 17 µm; Areal density of activated microglia (activated microglia): 34.7±1.8 microglia/mm^2; Decrease in areal density of activated microglia (activated microglia): 60%; Decline in number of plaques per brain (Aβ plaques [2]): 3-6 fold

Source: patent US20130178536A1, “SUBSTITUTED CIS- AND TRANS-STILBENES AS THERAPEUTIC AGENTS” (STC.UNM, priority 2006, published 2013)
